Tested on: inner cell mass (ICM) of NOD/SCID mouse
Assay: Inventors' earlier attempts to establish ES cells from NOD/SCID inner cell mass by known methods
Assay type: cell-based
Conditions: factor(s) in medium
Procedure: The present inventors have considered that this problem can be solved by establishing an ES cell from an NOD/SCID background mouse and introducing human gene thereinto to generate the human gene-introduced NOD/SCID background mouse. […] Furthermore, an FGF receptor inhibitor, an MEK activation inhibitor and a GSK3 inhibitor were added to the medium according to the method that established an ES cell from an NOD mouse (non-patent document 4).

With “ACTH: known peptide hormone consisting of 39 amino acids (SYSMEHFRWGKPVGKKRRPVKVYPNGAEDESAEAFPLEF; Corticotropin; UniProt P01189 138-176, looked up)” the “establishment of ES cell” value was “could not establish”.
